{"source": "patent US20260375146A1", "about": "“COMBINATION OF COMPOUNDS FOR DEVELOPING IN VITRO MODELS OF THE BLOOD-BRAIN BARRIER” (HUN-REN SZEGEDI BIOLÓGIAI KUTATÓKÖZPONT, priority 2023, published 2026)", "molecules": {"B1": {"name": "Wnt-3a: recombinant human Wnt-3a protein (protein, UniProt P56704 19-352, looked up)", "Protein Wnt-3a": "SYPIWWSLAVGPQYSSLGSQPILCASIPGLVPKQLRFCRNYVEIMPSVAEGIKIGIQECQHQFRGRRWNCTTVHDSLAIFGPVLDKATRESAFVHAIASAGVAFAVTRSCAEGTAAICGCSSRHQGSPGKGWKWGGCSEDIEFGGMVSREFADARENRPDARSAMNRHNNEAGRQAIASHMHLKCKCHGLSGSCEVKTCWWSQPDFRAIGDFLKDKYDSASEMVVEKHRESRGWVETLRPRYTYFKVPTERDLVYYEASPNFCEPNPETGSFGTRDRTCNVSSHGIDGCDLLCCGRGHNARAERRREKCRCVFHWCCYVSCQECTRVYDVHTCK"}}, "key": {"central nervous system": {"tested_on": "central nervous system", "details": "route of penetration across the BBB; cited from earlier work"}, "[1]": {"tested_on": "EC-PC co-culture BBB model", "test": "Penetration of small molecule drugs across the BBB co-culture model", "details": "1 μM drug; cAMP+Ro+LiCl+A83-01 vs control", "protocol": "Assembly, maintenance and treatment of co-cultures were performed as described above. […] In B-A direction, samples from both compartments were collected at 60 min. In A-B direction, inserts were transferred to a new well with fresh buffer at 30 min, then at the end of the assay samples were collected from the donor (0-60 min) and acceptor compartments (0-30 min, 30-60 min). […] Drug concentrations were determined by standard calibration curves.\nwhere CA is the concentration measured in the acceptor compartment, VA is the volume of the acceptor compartment (1.5 mL) and CD is the treatment concentration in the donor compartment at a given timepoint. […] Papp was then calculated as: […]\nwhere A is the surface area of the insert available for permeability (1.12 cm^2). Efflux ratio was calculated by dividing Papp values in B-A direction by Papp values in A-B direction.\nwhere nA.30, nA.60 and nD.60 are the amounts of substance (pmol) in the accentor compartment at 30 and 60 min as well as the donor compartment at 60 min, respectively, and nT is the amount of substance (pmol) present at the treatment solution at 0 min. In vitro Kp,uu,brain was then calculated as: […]\nwhere CT is the concentration of a drug in the treatment solution at 0 min, CD is the concentration in the donor compartment at 60 min and R is recovery. Calculation of Pearson r^2 and Spearman r coefficients using data referenced in the legend FIG. 5d was performed in GraphPad Prism software (version 5.0)."}, "Wnt/β-catenin signaling [2]": {"tested_on": "Wnt/β-catenin signaling", "test": "Pharmacological inhibition of Wnt/β-catenin signaling, barrier integrity by impedance", "type": "cell-based, human", "details": "for interference with basal barrier integrity: no combination treatment, titrated inhibitor; for reduction of the effect of cAMP+Ro+LiCl+A83-01 on barrier integrity (impedance): role: inhibitor, ICG-001 5 μM or XAV 939 1 μM, co-treatment 48 h", "protocol": "(§1) Real-time, label-free measurement of barrier integrity was performed in 96-well plates with integrated gold electrodes (E-plate 96: Agilent, cat #300600910) using an xCELLigence RTCA SP device (Agilent). Plates were coated with 0.2% gelatin (Sigma-Aldrich, cat #G2500) and the cell-free background was measured in culture medium for each well. Then, ECs were seeded in the plates at a density of 6×10^3 cells/well and grown until fully confluent, while receiving 50% PC-conditioned medium to acquire brain-like properties. […] For combinatorial treatments, the following concentrations were used: cAMP 250 µM, Ro […], Wnt-3a 300 ng/mL, Wnt-7a 300 ng/mL, LiCl 3 mM, RepSox 10 μM and A83-01 3 μM. For all further experiments on human ECs, combination of cAMP+Ro+LiCl+A83-01 treatment consisted of 250 μM cAMP+17.5 μM Ro+3 mM LiCl+3 μM A83-01. The readout of impedance measurements is cell index, a dimensionless parameter which correlates with the strength of cell-cell contacts and cell adhesion. Cell index was defined as Zn-Z0, where Zn is the impedance at time point n and Zo is the impedance of the cell-free background in each well. Cell index values were normalized to the last time point before treatment.\nWnt/β-catenin signaling was blocked at two different points using inhibitors ICG-001 (MedChemExpress, cat #HY-14428) and XAV 939 (MedChemExpress, cat #HY-15147). For the measurement of barrier integrity by impedance. ECs were cultured as described above. Confluent monolayers were treated with ICG-001 […] for 48 h at 37 °C, and impedance was measured at 10 kHz every 5 min using the xCELLigence RTCA SP device (Agilent) as described above. […] For the measurement of TEER and tracer permeability, EC-PC co-cultures were assembled and maintained as described above. On day 4, the luminal (blood) side of the model was incubated with the combination of cAMP+Ro+LiC+A83-01 or control medium supplemented with either 5 μM ICG-001 or 1 μM XAV 939 for 48 h at 37 °C. TEER and tracer permeability were then measured and calculated as described above."}, "Wnt/β-catenin signaling [3]": {"tested_on": "Wnt/β-catenin signaling", "details": "role: inhibitor; cited from earlier work"}, "Wnt/β-catenin signaling [4]": {"tested_on": "Wnt/β-catenin signaling", "details": "in vitro; cited from earlier work"}, "EC monolayers": {"tested_on": "EC monolayers", "details": "alone, especially with astrocyte-conditioned medium; cited from earlier work"}, "[5]": {"tested_on": "human stem cell-derived ECs", "test": "Impedance-based measurement of barrier integrity, human ECs", "type": "cell-based", "protocol": "as §1"}, "[6]": {"tested_on": "human endothelial cell and brain pericyte co-culture BBB model", "test": "Early experiment: cAMP alone or with PDE4 inhibitor, normalized cell index", "type": "cell-based", "details": "PDE4 inhibitor together with cAMP; in particular within first 24 hours; data not shown"}, "stem cell-derived ECs": {"tested_on": "stem cell-derived ECs", "details": "cited from earlier work"}, "[7]": {"tested_on": "human stem cell-derived brain-like ECs", "test": "Albumin internalization in ECs", "type": "cell-based", "details": "MβCD 1 mM, 1 h", "protocol": "ECs were cultured in 50% PC-conditioned medium on 35 mm glass bottom Petri dishes (Greiner Bio-One, cat #627860) coated with collagen IV (Sigma-Aldrich, cat #C5533, 100 ng/mL) and fibronectin (Sigma-Aldrich, cat #F1141, 25 μg/mL) at a seeding density of 5×10^4 cells/cm^2. […] After that, culture medium was removed and cells were incubated with Texas Red-conjugated BSA (TR-albumin; Invitrogen, cat #A23017, 5 μg/mL) dissolved in control medium for 2 h at 37 °C. For the final 20 minutes of incubation, Hoechst 33342 (Thermo Fisher, cat #H1399,2 μg/mL) was added to cells to counterstain nuclei. Cultures were washed twice in Ringer-HEPES supplemented with 1% FBS and live-cell imaging was performed immediately in the same buffer using a Leica TCS SP5 AOBS confocal laser scanning microscope equipped with a HCX PL APO 63× oil (NA=1.4) objective with the same parameters as described above. After live-cell imaging, cells were fixed with 3% paraformaldehyde for 15 min at room temperature and immunostained for caveolin-1 exactly as described above. […] Finally, ECs were lysed with 1% Triton X 100 in Milli-Q water and the fluorescent signal of internalized TR-albumin was quantified with a Fluorolog 3 spectrofluorometer (Horiba Jobin Yvon) at 592 nm excitation and 612 nm emission wavelengths. Concentrations of internalized TR-albumin were calculated using a standard calibration curve. […]"}}, "note": "Read-outs that look alike come from different tables or passages of the source.", "data": [{"molecule": "CC(C)NCC(O)COc1cccc2ccccc12", "note": "(stereo not shown) [Propranolol]", "values": [{"measurement": "BBB transport", "setting": "central nervous system", "value": "Passive lipophilic"}, {"measurement": "permeability (Papp), blood-to-brain (A-B), change on combination treatment", "setting": "[1]", "value": "increased the permeability"}]}, {"molecule": "Nc1nnc(-c2cccc(Cl)c2Cl)c(N)n1", "note": "[Lamotrigine]", "values": [{"measurement": "BBB transport", "setting": "central nervous system", "value": "Passive lipophilic"}]}, {"molecule": "Oc1nc(-c2ccc(C(F)(F)F)cc2)nc2c1CSCC2", "note": "[XAV 939]", "values": [{"measurement": "interference with basal barrier integrity", "setting": "Wnt/β-catenin signaling [2]", "value": "do not interfere with basal barrier integrity"}, {"measurement": "reduction of the effect of cAMP+Ro+LiCl+A83-01 on barrier integrity (impedance)", "setting": "Wnt/β-catenin signaling [2]", "value": "more potently reduced the effect of the combination of cAMP+Ro+LiCl+A83-01, almost to the level of cAMP+Ro treatment"}, {"measurement": "point of inhibition of Wnt signaling", "setting": "Wnt/β-catenin signaling [3]", "value": "blocks the pathway upstream of nuclear translocation"}]}, {"molecule": "O=C1Nc2cc(Br)ccc2C1=C1Nc2ccccc2C1=NO", "note": "[6-BIO, 6-bromoindirubin-3-oxim]", "values": [{"measurement": "induction of barrier properties", "setting": "Wnt/β-catenin signaling [4]", "value": "induce a subset of barrier properties"}]}, {"molecule": "Methotrexate", "values": [{"measurement": "BBB transport", "setting": "central nervous system", "value": "Efflux"}, {"measurement": "efflux ratio, change on combination treatment", "setting": "[1]", "value": "elevated"}]}, {"molecule": "COc1ccc2c(c1)c(CC(=O)O)c(C)n2C(=O)c1ccc(Cl)cc1", "note": "[Indomethacin]", "values": [{"measurement": "BBB transport", "setting": "central nervous system", "value": "Passive lipophilic"}]}, {"molecule": "Cc1c[nH]c(-c2cnc(NCCNc3ccc(C#N)cn3)nc2-c2ccc(Cl)cc2Cl)n1", "note": "[CHIR99021]", "values": [{"measurement": "induction of barrier properties", "setting": "Wnt/β-catenin signaling [4]", "value": "induce a subset of barrier properties"}]}, {"molecule": "C=C[C@@]1(C)CC(=O)[C@]2(O)[C@@]3(C)[C@@H](O)CCC(C)(C)[C@@H]3[C@H](O)[C@H](OC(C)=O)[C@@]2(C)O1", "note": "[forskolin]", "values": [{"measurement": "resistance across EC monolayers", "setting": "EC monolayers", "value": "increase resistance across EC monolayers"}]}, {"molecule": "Nc1c2c(nc3ccccc13)CCCC2", "note": "[Tacrine]", "values": [{"measurement": "BBB transport", "setting": "central nervous system", "value": "Influx"}, {"measurement": "permeability (Papp), blood-to-brain (A-B), change on combination treatment", "setting": "[1]", "value": "increased the permeability"}]}, {"molecule": "[Cl-].[Li+]", "note": "[LiCl, lithium chloride]", "values": [{"measurement": "induction of barrier properties", "setting": "Wnt/β-catenin signaling [4]", "value": "induce a subset of barrier properties"}, {"measurement": "enhancement of the effect of cAMP+Ro on barrier integrity (impedance)", "setting": "[5]; added to cAMP+Ro", "value": "did not enhance"}]}, {"molecule": "CCCCOc1cc(CC2CNC(=O)N2)ccc1OC", "note": "(stereo not shown) [Ro 20-1724, 4-(3-Butoxy-4-methoxybenzyl)imidazolidin-2-one]", "values": [{"measurement": "resistance across EC monolayers", "setting": "EC monolayers", "value": "increase resistance across EC monolayers"}, {"measurement": "barrier integrity as normalized cell index, further increase over cAMP alone", "setting": "[6]", "value": "further increases barrier integrity"}]}, {"molecule": "Cc1cccc(-c2nn(C(=S)Nc3ccccc3)cc2-c2ccnc3ccccc23)n1", "note": "[A83-01, 3-(6-Methyl-2-pyridinyl)-N-phenyl-4-(4-quinolinyl)-1H-pyrazole-1-carbothioamide]", "values": [{"measurement": "junctional tightness", "setting": "stem cell-derived ECs", "value": "elevate junctional tightness"}, {"measurement": "enhancement of the effect of cAMP+Ro on barrier integrity (impedance)", "setting": "[5]", "value": "did not enhance"}]}, {"molecule": "CC[C@]1(O)C[C@@H]2CN(CCc3c([nH]c4ccccc34)[C@@](C(=O)OC)(c3cc4c(cc3OC)N(C)[C@H]3[C@@](O)(C(=O)OC)[C@H](OC(C)=O)[C@]5(CC)C=CCN6CC[C@]43[C@@H]65)C2)C1", "note": "[Vinblastine]", "values": [{"measurement": "BBB transport", "setting": "central nervous system", "value": "Efflux"}, {"measurement": "efflux ratio, change on combination treatment", "setting": "[1]", "value": "trend"}, {"measurement": "permeability (Papp), blood-to-brain (A-B), change on combination treatment", "setting": "[1]", "value": "lower permeability"}]}, {"molecule": "methyl-β-cyclodextrin [methyl-p-cyclodextrin]", "values": [{"measurement": "inhibition of albumin internalization (lipid raft/caveolin-mediated endocytosis)", "setting": "[7]", "value": "sensitive"}]}, {"molecule": "O=C(O)c1ccccc1O", "note": "[Salicylic acid]", "values": [{"measurement": "BBB transport", "setting": "central nervous system", "value": "Efflux, influx"}, {"measurement": "permeability (Papp), blood-to-brain (A-B), change on combination treatment", "setting": "[1]", "value": "lower permeability"}]}, {"molecule": "O=C1[C@H](Cc2ccc(O)cc2)N2C(=O)CCN(C(=O)NCc3ccccc3)[C@H]2CN1Cc1cccc2ccccc12", "note": "[ICG-001]", "values": [{"measurement": "interference with basal barrier integrity", "setting": "Wnt/β-catenin signaling [2]", "value": "do not interfere with basal barrier integrity"}, {"measurement": "reduction of the effect of cAMP+Ro+LiCl+A83-01 on barrier integrity (impedance)", "setting": "Wnt/β-catenin signaling [2]", "value": "moderately"}, {"measurement": "point of inhibition of Wnt signaling", "setting": "Wnt/β-catenin signaling [3]", "value": "specifically inhibits the β-catenin-CREB-binding protein (CBP) interaction in the nucleus"}]}, {"molecule": "CN(C)C(=O)C(CCN1CCC(O)(c2ccc(Cl)cc2)CC1)(c1ccccc1)c1ccccc1", "note": "[Loperamide]", "values": [{"measurement": "BBB transport", "setting": "central nervous system", "value": "Passive hydrophilic, efflux"}, {"measurement": "efflux ratio, change on combination treatment", "setting": "[1]", "value": "elevated"}, {"measurement": "permeability (Papp), blood-to-brain (A-B), change on combination treatment", "setting": "[1]", "value": "lower permeability"}]}, {"molecule": "Cc1cccc(-c2[nH]ncc2-c2ccc3ncccc3n2)n1", "note": "[RepSox]", "values": [{"measurement": "junctional tightness", "setting": "stem cell-derived ECs; stem cell-derived ECs, via claudin-5", "value": "elevate junctional tightness"}]}, {"molecule": "B1", "values": [{"measurement": "induction of barrier properties", "setting": "Wnt/β-catenin signaling [4]", "value": "induce a subset of barrier properties"}]}]}
